Test results taken from patent publication US12178840B2, “Method and compositions comprising a CT20 peptide” (UNIVERSITY OF CENTRAL FLORIDA RESEARCH FOUNDATION, INC., priority 2014, dated 2024).
Residues, ends and D or L forms follow the SMILES beside them.

Assays:
[1] = molecular target: T1, Purified recombinant CCTβ (Homo sapiens, UniProt P78371); assay: Pull-down with purified recombinant CCTβ; format: binding; details: 0.1 nmol CCTβ, CT20p-Biotin 0.1 to 4 nmol
T1 construct: purchased MyBioSource; host or cells: E. coli
T1 sequence (P78371 1-535): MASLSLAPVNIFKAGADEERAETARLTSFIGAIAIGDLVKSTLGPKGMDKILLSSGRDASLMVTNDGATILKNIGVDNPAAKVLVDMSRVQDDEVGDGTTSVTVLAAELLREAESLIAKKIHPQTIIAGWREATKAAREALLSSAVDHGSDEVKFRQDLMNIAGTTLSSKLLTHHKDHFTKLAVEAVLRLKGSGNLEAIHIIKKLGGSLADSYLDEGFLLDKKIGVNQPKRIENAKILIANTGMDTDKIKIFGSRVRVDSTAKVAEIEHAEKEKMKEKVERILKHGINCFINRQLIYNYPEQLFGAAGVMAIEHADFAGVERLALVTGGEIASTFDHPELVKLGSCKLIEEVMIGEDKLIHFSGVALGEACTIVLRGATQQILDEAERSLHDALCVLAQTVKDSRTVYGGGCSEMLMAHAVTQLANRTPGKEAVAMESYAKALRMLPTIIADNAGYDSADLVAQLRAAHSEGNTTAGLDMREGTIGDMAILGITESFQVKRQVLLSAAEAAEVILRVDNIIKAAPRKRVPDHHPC
Experimental: FIG. 9 is representative data showing that CT20p binds directly to CCTβ. Purified recombinant CCTβ was tested for interaction with CT20p as described in Materials and Methods.
Pull down experiments: Lysate pull-downs were performed with 200 ug cell lysate, obtained by douncing as described above. Lysates were pre-cleared with streptavidin-agarose beads (Pierce), then incubated with […] of CT20-Biotin or biotin for 3 hours at room temperature, followed by overnight incubation at 4° C. with streptavidin-agarose beads. Beads were washed thoroughly with wash buffer (25 mM Tris, 150 mM NaCl, 0.1% NP40, pH7.4), then heated in 4× loading buffer (Invitrogen) for analysis by SDS-PAGE. Mass spectrometric analysis was performed by Moffit Cancer Center (Tampa, FL). Mass spectrometry results presented are of proteins with at least two unique peptides identified, and that were not recovered with biotin-only pull down. In-cell pull downs were performed by first delivering CT20p-Biotin encapsulated in nanoparticles to viable cells at a dose of 75 μg/mL for varying lengths of time. Following treatment, cells were collected and lysed by douncing. 200 ug of cell lysate were then incubated with streptavidin-agarose beads overnight at 4° C., and pull-down was completed as described above. […]

[2] = molecular target: T2, CCTβ (Homo sapiens, UniProt P78371); assay: Lysate pull-down with CT20p-biotin, immunoblot for CCTβ; format: binding; details: TNBC cell lines and MCF-10A lysates; more so in the MSL subtypes
T2 construct: probing lysates from the TNBC cell lines and MCF-10A cells with CT20p-biotin; endogenous in cells; host or cells: lysates of MDA-MB-231, MDA-MB-436, MDA-MB-468, BT-549 and MCF-10A cells
Experimental: Immunoblotting: Cell lysates were obtained by mechanical douncing in fractionation buffer consisting of 210 mM sucrose, 70 mM mannitol, 10 mM HEPES, 1 mM EDTA, pH 7.4. Lysates were centrifuged at 1,000×g for 10 minutes at 4° C., and the supernatants were subjected to SDS-PAGE, followed by transfer to Immobilon-FL membranes (Millipore). Blots were probed with primary antibodies against CCTβ (Millipore), […]. (Abcam), CCTε (Abcam), or p38 (Santa Cruz). Detection was performed by incubation with IRDye 800CW or IRDye 680CW secondary antibodies (LI-COR), followed by imaging on the Oddysey detection system (LI-COR). Quantificition of Western blots was performed with Image Studio software (LI-COR). Proteins of interest were quantified relative to p38 loading controls, then normalized to the level in MCF-10A cells.
Pull down experiments: Lysate pull-downs were performed with 200 ug cell lysate, obtained by douncing as described above. Lysates were pre-cleared with streptavidin-agarose beads (Pierce), then incubated with […] of CT20-Biotin or biotin for 3 hours at room temperature, followed by overnight incubation at 4° C. with streptavidin-agarose beads. Beads were washed thoroughly with wash buffer (25 mM Tris, 150 mM NaCl, 0.1% NP40, pH7.4), then heated in 4× loading buffer (Invitrogen) for analysis by SDS-PAGE. Mass spectrometric analysis was performed by Moffit Cancer Center (Tampa, FL). […]

[3] = tested on: MDA-MB-231 subcutaneous tumors; assay: Tumor growth in mice bearing subcutaneous MDA-MB-231 tumors, nanoparticle treatment; format: in vivo
Description: Referring to FIG. 2A, the graph summarizes the results with FOL-NPs that were empty, contained Doxorubicin (DOX), or CT20, and are compared to COOH-NPs with CT20. Referring to FIG. 2B, representative ultrasound data is shown from mice treated with PBS or FOL-CT20-NPs. Arrows indicate treatment times. *p<0.05.
To test the ability of CT20 to inhibit tumor growth, HBPE-NPs were modified with folate (FOL) to target the folate receptor (FR) (Boohaker, R. J., et al. (2012) Mol. Pharm. 7, 2080-2093; Lee, M. W., et al. (2014) Cell Death Dis. 5). FR targeting enabled concentration of the HBPE-NPs in murine tumors during systemic delivery. FIG. 2 is a representative animal experiment in which MDA-MB-231 cells were used to form subcutaneous tumors. Mice (n=5) were treated with two subcutaneous injections of nanoparticles (2 mg/kg/dose) over a five week period. […] Referring to FIG. 2B, representative ultrasound data is shown from mice treated with PBS or FOL-CT20-NPs. Arrows indicate treatment times. *p<0.05.

## CC[C@H](C)[C@H](NC(=O)[C@@H](NC(=O)[C@H](CC(C)C)NC(=O)[C@H](CO)NC(=O)[C@H](C)NC(=O)[C@@H](NC(=O)[C@H](CC(C)C)NC(=O)[C@@H](NC(=O)CNC(=O)[C@H](C)NC(=O)[C@@H](NC(=O)[C@H](Cc1ccccc1)NC(=O)[C@@H](NC(=O)[C@@H](NC(=O)[C@@H](NC(C)=O)C(C)C)[C@@H](C)O)[C@@H](C)CC)C(C)C)C(C)C)[C@@H](C)O)[C@@H](C)O)C(=O)N[C@@H](Cc1c[nH]c2ccccc12)C(=O)N[C@@H](CCCCN)C(=O)N[C@@H](CCCCN)C(=O)N[C@@H](CCSC)C(=O)NCC(N)=O [CT20] (Ac-VTIFVAGVLTASLTIWKKMG-NH2)
[1]
  Direct interaction with CCTβ: does interact directly with CCTβ
[2]
  Interaction with CCTβ in cell lysates: able to interact with CCTβ in all cell lines
[3]; CT20 delivered in HBPE-NPs
  Effectiveness compared with Doxorubicin: as effective, if not more, than drugs such as Doxorubicin
[3]; two subcutaneous injections of nanoparticles (2 mg/kg/dose) over five weeks
  Inhibition of tumor growth: caused tumor regression
